The source of these data is article PMC8433439, “Bivalent ligands promote endosomal trafficking of the dopamine D3 receptor-neurotensin receptor 1 heterodimer” (Communications Biology, 2021).

“Also recorded” adds a separate entry of the source.

Assay [1] addresses T1, D3R (Homo sapiens, UniProt P35462). Put plainly: biochemical.
Procedure: (§1) Affinities of the bivalent ligands were determined by radio-ligand displacement in analogy to previously described protocols[76]. […] Competition binding experiments were carried out using a protein concentration of 4–18 µg protein per well for the coexpression systems and 1–12 µg per well for the monoexpression system in a total volume of 200 µL. […] All binding experiments were carried out at 37 °C in binding buffer consisting of 50 mM Tris pH 7.4, 5 nM MgCl2, 1 mM EDTA, 100 µg ∙ mL^−1 bacitracin and 100 µg ∙ mL^−1 soybean trypsin inhibitor. Data were normalised to non-specific and total binding and analysed employing one- or two-site competition binding algorithms implemented in GraphPad Prism for windows, version 6.0 (GraphPad Software, San Diego California, USA, www.graphpad.com).
Assay [2] deals with T1, D3R. Put plainly: Radioligand competition/saturation binding with [3H]spiperone, membranes of HEK293T cells monoexpressing D3R. The note with it: read-out: % Specific binding [³H]Spiperone, D3R; for remaining activity at 0.001 µM: log concentration -9.00; for remaining activity at 0.0001 µM: log concentration -10.00; for remaining activity at 1 pM: log concentration -12.00.
Procedure: as §1

Assay [3] addresses T1, D3R. The assay can be described thus: IPOne accumulation, D3R-mediated G protein activation, HEK293T cells with D3R and Gqprom. The assay is classed as cell-based. Further details: host or cells: HEK293T, transient. The note with it: compared to the reference agonist quinpirole. How it is done: Supplementary Figure 7 . Activation of D3R in transiently transfected HEK293T cells. D3R-mediated activation of G proteins was measured by stimulation of HEK293T cells transiently transfected with D3R and a promiscuous Gq protein (Gqprom). Subsequent f ormation of IP3 as second messenger of the Gq signaling pathway was determined employing the IPOne assay (CisBio). […]
TransIT293 in a DNA to reagent ratio of 1 : 3. After 24h, cells were detached using Versene […]
Germany) and additionally cultivated f or 24 h at 37°C, 5% CO 2. After replacement of the medium with 10 µL stimulation buffer (CisBio, Codolet, France), 5 µL of the test compounds dissolved in stimulation buffer were added. After 90 min at 37°C, 5 µL of IP1 reagent mix and 5 µ L of AB r eag ent mix in lysis buff er (CisBio) were added, f ollowed by a 60 min incubation at room temperature under light exclusion. The FRET ratio was determined using a CLARIOstar microplate reader with a f ilter […]
A sigmoid curve was fitted using the algorithms for three-parameter non-linear regression provided by GraphPad Pr ism 6.0 and the data were normalized to […]

The next assay has as its target T2, D3R-Rluc (Homo sapiens, UniProt P35462).
T2 construct: 24-aa linker […]; expressed in transfected cells; host or cells: HEK293SL or Δβ-arrestin-HEK, transient
Put plainly: Bystander BRET internalisation (rGFP-CAAX / rGFP-FYVE), monoexpressed D3R-Rluc. The class given is cell-based. To be noted: 1 µM quinpirole or 10 nM bivalent ligand.

Assay [4] addresses T1, D3R. The assay can be described thus: Surface ELISA, monoexpressed Flag-D3R. The assay is classed as cell-based. More on the design: host or cells: HEK293T, transient. To be noted: 1 µM quinpirole, 1 µM NT(8-13) or 10 nM 1d, 30 min.
Procedure: β-arrestin 2 recruitment (bystander BRET)6
HEK293SL cells were diluted to a density of 350 ,000 cells ∙ mL-1 and transiently transfected using
to a total DNA amount of 1 µg . 35,000 cells were plated in a 96-well plate coated with poly L- ornithine
and cultivated f or 48 h at 37°C, 5% CO2. On the day of the experiment, the cell medium was aspirated
and each well was washed once with PBS and serum starved f or 30-45 min. A Deep Blue C dilution
ligand dilution in Tyrode’s buffer was added. After additional stimulation for 5 min at 37°C, 5% CO2,
BRET2 was determined using a Mithras LB940 multimode microplate reader with 400- 70 nm (donor)
Obtained BRETratios were normalized to vehicle
non- linear regression employing the models implemented in GraphPad Prism 6.

T1 sequence (P35462 whole entry): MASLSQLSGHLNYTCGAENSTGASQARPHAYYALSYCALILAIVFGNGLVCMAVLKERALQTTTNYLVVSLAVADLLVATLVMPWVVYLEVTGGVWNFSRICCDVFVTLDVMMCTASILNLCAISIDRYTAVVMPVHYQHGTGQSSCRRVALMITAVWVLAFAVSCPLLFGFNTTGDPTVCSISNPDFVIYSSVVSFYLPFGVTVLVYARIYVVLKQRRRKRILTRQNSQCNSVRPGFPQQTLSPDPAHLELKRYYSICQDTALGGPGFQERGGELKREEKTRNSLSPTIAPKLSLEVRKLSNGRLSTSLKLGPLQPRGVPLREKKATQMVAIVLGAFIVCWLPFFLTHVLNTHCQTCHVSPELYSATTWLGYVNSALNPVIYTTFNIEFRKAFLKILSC
T2 sequence (P35462 whole entry): as above
Procedure for D3R-Rluc: HEK293SL cells[71] or Δβ-arrestin-HEK[49] were detached with Trypsin/EDTA (Wisent Inc., St-Bruno, QC, Canada) and 350,000 cells were transiently transfected in suspension using polyethyleneimine. 5 ng of NTSR1-Rluc or 400 ng of D3R-Rluc8 were either mono-or cotransfected with 600 ng of untagged D3R or 5 ng NTSR1, respectively, along with 300 ng rGFP-CAAX or 300 ng rGFP-FYVE and ssDNA to a total of 1 µg DNA. Cells were seeded in white poly-L-ornithine (Sigma Aldrich) coated 96-well plates (Greiner Bio one) at a density of 35,000 cells per well. 48 hours after transfection, cells were washed once with PBS and serum starved for 30–45 min in Tyrode’s Buffer at 37 °C, 5% CO2. Coelenterazine-h was added in a final concentration of 3 µM and cells were further incubated at 37 °C, 5% CO2. After 3 min, ligands were added and cells were stimulated for 30 min, 37 °C, 5% CO2 before determining the BRETratio using a Mithras LB940 multimode microplate reader with 480-20 nm (donor) and 530-20 nm (acceptor) filters. […] Ligand-induced effects were monitored by calculation of ΔBRET, which was determined as the difference in BRETratio between the ligand-treated conditions and vehicle-treated controls. Data were analysed by three-parameter sigmoid or bell-shaped nonlinear regression using the algorithms provided by GraphPad Prism 6.0.

Take `CC[C@H](C)[C@H](NC(=O)[C@H](Cc1ccc(O)cc1)NC(=O)[C@@H]1CCCN1C(=O)[C@H](CCCNC(=N)N)NC(=O)[C@H](CCCNC(=N)N)NC(=O)CCOCCOCCOCCOCCOCCOCCNC(=O)c1ccc(-c2ccc(-n3cc(CCCCN4CCN(c5ccccc5OC)CC4)nn3)cc2)cc1)C(=O)N[C@@H](CC(C)C)C(=O)O` [2a]: on D3R [1], the Ki turned out to be 4.4 nM. For the same compound, the remaining activity at 0.01 µM on D3R [2] (log concentration -8.00) came to 44.3%. At D3R [2], the remaining activity at 0.001 µM is 75%, the remaining activity at 0.0001 µM is 90% and the remaining activity at 1 pM amounted to 102%. In addition, the remaining activity at 10 pM at D3R [2] (log concentration -11.00) came out at 92%. Moreover, the “D3R-mediated activation of G proteins” value on D3R [3] is “weak partial agonist or antagonist-like behavior”.
With `CCCN(CCCCc1cn(-c2ccc(-c3ccc(C(=O)NCCOCCOCCOCCOCCOCCOCCC(=O)NCCOCCOCCOCCOCCOCCOCCC(=O)NCCOCCOCCOCCOCCOCCOCCC(=O)NCCOCCOCCOCCOCCOCCOCCC(=O)N[C@@H](CCCNC(=N)N)C(=O)N[C@@H](CCCNC(=N)N)C(=O)N4CCC[C@H]4C(=O)N[C@@H](Cc4ccc(O)cc4)C(=O)N[C@H](C(=O)N[C@@H](CC(C)C)C(=O)O)[C@@H](C)CC)cc3)cc2)nn1)C1Cc2ccccc2C1` [1d], at D3R-Rluc, the “internalisation of monoexpressed D3R-Rluc” value is given as “could not detect internalisation”. The “surface expression of monoexpressed D3R” value at D3R [4] was “unchanged; also recorded: did not lead to apparent changes in surface expression”. The remaining activity at 0.302 µM at D3R [2] (log concentration -6.52) is -0.137%. Moreover, the remaining activity at 0.0302 µM on D3R [2] (log concentration -7.52) came out at 12.6%. The remaining activity at 0.00302 µM on D3R [2] (log concentration -8.52) is 46.4%. In addition, the remaining activity at 0.000302 µM at D3R [2] (log concentration -9.52) amounted to 92.1%. Also, on D3R [2], the remaining activity at 0.0001 µM was 92.1% and the remaining activity at 1 pM came to 103%. Also, the remaining activity at 30.2 pM on D3R [2] (log concentration -10.52) came out at 96.8%. Besides, the “D3R-mediated activation of G proteins” value at D3R [3] is recorded as “full D3R agonists”.
With `CC[C@H](C)[C@H](NC(=O)[C@H](Cc1ccc(O)cc1)NC(=O)[C@@H]1CCCN1C(=O)[C@H](CCCNC(=N)N)NC(=O)[C@H](CCCNC(=N)N)NC(=O)CCOCCOCCOCCOCCOCCOCCNC(=O)CCOCCOCCOCCOCCOCCOCCNC(=O)CCOCCOCCOCCOCCOCCOCCNC(=O)CCOCCOCCOCCOCCOCCOCCNC(=O)c1ccc(-c2ccc(-n3cc(CCCCN4CCN(c5ccccc5OC)CC4)nn3)cc2)cc1)C(=O)N[C@@H](CC(C)C)C(=O)O` [2d], the “internalisation of monoexpressed D3R-Rluc” value at D3R-Rluc is “could not detect internalisation”. In addition, at D3R [2], the remaining activity at 1 pM was 94.4%. Also, at D3R [3], the “D3R-mediated activation of G proteins” value is given as “weak partial agonist or antagonist-like behavior”.
`CCCN(CCCCc1cn(-c2ccc(-c3ccc(C(=O)NCCOCCOCCOCCOCCOCCOCCC(=O)N[C@@H](CCCNC(=N)N)C(=O)N[C@@H](CCCNC(=N)N)C(=O)N4CCC[C@H]4C(=O)N[C@@H](Cc4ccc(O)cc4)C(=O)N[C@H](C(=O)N[C@@H](CC(C)C)C(=O)O)[C@@H](C)CC)cc3)cc2)nn1)C1Cc2ccccc2C1` [1a]: at D3R [2], the remaining activity at 0.001 µM is 48.9%, the remaining activity at 0.0001 µM was 74.5% and the remaining activity at 1 pM amounted to 88.8%. Also, the “D3R-mediated activation of G proteins” value on D3R [3] is given as “full D3R agonists”.
